Source: patent publication US20110086759A1, “CHEMICAL COMPOUNDS” (SYNGENTA CROP PROTECTION, INC., priority 2007, published 2011)

Legend:
Format in all cases: in vivo
Setaria faberi (SETFA) [1] = assay: Post-emergence biological efficacy, glasshouse pot test; conditions: 312 h, post-emergence, 1,000 g/ha, evaluated after 13 days (100=total damage; 0=no damage), read-out: Percentage damage caused to weed species, SETFA
Summary of the method: (§1)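 Pot-grown weeds were sprayed 8 days after sowing with test compound in acetone/water (50:50) with 0.5% Tween 20 at 1000 or 250 g/ha. Glasshouse at 24/16° C day/night, 14 h light, 65% humidity. Damage scored 0-100 (100 = total damage) after 13 days.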

[2] = test system: Echinochloa crus-galli (ECHCG); assay: as above; conditions: 312 h, post-emergence, 1,000 g/ha, evaluated after 13 days (100=total damage; 0=no damage), read-out: Percentage damage caused to weed species, ECHCG
Summary of the method: as §1

[3] = test system: Alopecurus myosuroides (ALOMY); assay: as above; conditions: 312 h, post-emergence, 1,000 g/ha, evaluated after 13 days (100=total damage; 0=no damage), read-out: Percentage damage caused to weed species, ALOMY
Summary of the method: as §1

Solanum nigrum (SOLNI) [4] = assay: as above; conditions: 312 h, post-emergence, 1,000 g/ha, evaluated after 13 days (100=total damage; 0=no damage), read-out: Percentage damage caused to weed species, SOLNI
Summary of the method: as §1

[5] = test system: Amaranthus retoflexus (AMARE); assay: as above; conditions: Amaranthus retroflexus, 312 h; post-emergence, 1,000 g/ha, evaluated after 13 days (100=total damage; 0=no damage); read-out: Percentage damage caused to weed species, AMARE
Summary of the method: as §1

[6] = test system: Ipomea hederaceae (IPOHE); assay: as above; conditions: Ipomoea hederacea, 312 h; post-emergence, 1,000 g/ha, evaluated after 13 days (100=total damage; 0=no damage); read-out: Percentage damage caused to weed species, IPOHE
Summary of the method: as §1

Setaria faberi (SETFA) [7] = assay: Pre-emergence biological efficacy, glasshouse pot test; conditions: 312 h, pre-emergence, 1,000 g/ha, evaluated after 13 days (100=total damage; 0=no damage), read-out: Percentage damage SETFA
Summary of the method: (§2)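 Glasshouse pot test: spray on soil one day after sowing, 1000 or 250 g/ha. Conditions 24/16 °C day/night, 14 h light, 65% humidity. Plant damage scored 0–100 at 13 days.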

[8] = test system: Echinochloa crus-galli (ECHCG); assay: as above; conditions: 312 h, pre-emergence, 1,000 g/ha, evaluated after 13 days (100=total damage; 0=no damage), read-out: Percentage damage ECHCG
Summary of the method: as §2

[9] = test system: Alopecurus myosuroides (ALOMY); assay: as above; conditions: 312 h, pre-emergence, 1,000 g/ha, evaluated after 13 days (100=total damage; 0=no damage), read-out: Percentage damage ALOMY
Summary of the method: as §2

Solanum nigrum (SOLNI) [10] = assay: as above; conditions: 312 h, pre-emergence, 1,000 g/ha, evaluated after 13 days (100=total damage; 0=no damage), read-out: Percentage damage SOLNI
Summary of the method: as §2

[11] = test system: Amaranthus retoflexus (AMARE); assay: as above; conditions: Amaranthus retroflexus, 312 h; pre-emergence, 1,000 g/ha, evaluated after 13 days (100=total damage; 0=no damage); read-out: Percentage damage AMARE
Summary of the method: as §2

[12] = test system: Ipomea hederaceae (IPOHE); assay: as above; conditions: Ipomoea hederacea, 312 h; pre-emergence, 1,000 g/ha, evaluated after 13 days (100=total damage; 0=no damage); read-out: Percentage damage IPOHE
Summary of the method: as §2

Compound | pest or weed control at 1000 g/ha (Setaria faberi (SETFA) [1]) | pest or weed control at 1000 g/ha [2] | pest or weed control at 1000 g/ha [3] | pest or weed control at 1000 g/ha (Solanum nigrum (SOLNI) [4]) | pest or weed control at 1000 g/ha [5] | pest or weed control at 1000 g/ha [6] | pest or weed control at 1000 g/ha (Setaria faberi (SETFA) [7]) | pest or weed control at 1000 g/ha [8] | pest or weed control at 1000 g/ha [9] | pest or weed control at 1000 g/ha (Solanum nigrum (SOLNI) [10]) | pest or weed control at 1000 g/ha [11] | pest or weed control at 1000 g/ha [12]
COC(=O)c1nc(C2CC2)nc(NCCN2CCOCC2)c1Cl [Compound 4-220, 5-Chloro-2-cyclopropyl-6-methoxycarbonyl-4-[2-(morpholin-4-yl)ethylamino]-pyrimidine] | 40% | 30% | 20% | 90% | 100% | 100% | 0% | 30% | 0% | 40% | 60% | 50%
COC(=O)c1nc(C2CC2)nc(NCCc2ccccc2)c1Cl [Compound 4-221, 5-Chloro-2-cyclopropyl-6-methoxycarbonyl-4-(2-phenylethyl-amino)-pyrimidine] | 70% | 40% | 30% | 80% | 100% | 100% | 60% | 60% | 60% | 90% | 100% | 100%
COC(=O)c1nc(C2CC2)nc(NCCc2ccc(S(N)(=O)=O)cc2)c1Cl [Compound 4-222, 4-[2-(4-Amino-sulphonylphenyl)-ethylamino]-5-chloro-2-cyclo-propyl-6-methoxy-carbonylpyrimidine] | 0% | 0% | 0% | 20% | 30% | 60% | 0% | 0% | 0% | 0% | 30% | 10%
COC(=O)c1nc(C2CC2)nc(NCCc2cccs2)c1Cl [Compound 4-224, 5-Chloro-2-cyclopropyl-6-methoxycarbonyl-4-[2-(thiophen-2-yl)ethylamino]-pyrimidine] | 30% | 10% | 10% | 70% | 100% | 50% | 0% | 0% | 0% | 30% | 20% | 70%
COC(=O)c1nc(C2CC2)nc(NCCc2c[nH]c3ccccc23)c1Cl [Compound 4-226, 5-Chloro-2-cyclopropyl-4-[2-(indol-3-yl)ethylamino]-6-methoxycarbonyl-pyrimidine] | 50% | 10% | 30% | 80% | 100% | 60% | 0% | 10% | 0% | 60% | 70% | 100%
COC(=O)c1nc(C2CC2)nc(NCCc2c[nH]c3ccc(OC)cc23)c1Cl [Compound 4-227, 5-Chloro-2-cyclopropyl-6-methoxycarbonyl-4-[2-(5-methoxyindol-3-yl)-ethylamino]-pyrimidine] | 40% | 30% | 10% | 80% | 70% | 70% | 0% | 0% | 0% | 30% | 20% | 50%
COC(=O)c1nc(C2CC2)nc(NCCc2ccccn2)c1Cl [Compound 4-228, 5-Chloro-2-cyclopropyl-6-methoxycarbonyl-4-[2-(pyrid-2-yl)ethylamino]-pyrimidine] | 50% | 40% | 10% | 80% | 90% | 70% | 0% | 0% | 0% | 40% | 70% | 40%
COC(=O)c1nc(C2CC2)nc(NCCc2cc(C(F)(F)F)cc(Cl)n2)c1Cl [Compound 4-229, 5-Chloro-4-[2-(6-chloro-4-trifluoromethyl-pyrid-2-yl)ethylamino]-2-cyclopropyl-6-methoxycarbonyl-pyrimidine] | 70% | 20% | 10% | 90% | 100% | 60% | 10% | 0% | 0% | 20% | 30% | 20%
COC(=O)c1nc(C2CC2)nc(NC(C)CC2CCCC2)c1Cl (stereo not drawn) [Compound 4-230, 5-Chloro-4-(2-cyclopentyl-1-methyl-ethylamino)-2-cyclopropyl-6-methoxycarbonyl-pyrimidine] | 0% | 0% | 0% | 40% | 40% | 40% | 0% | 0% | 0% | 0% | 10% | 40%
COC(=O)c1nc(C2CC2)nc(NC(C)Cc2c[nH]c3ccccc23)c1Cl (stereo not drawn) [Compound 4-231, 5-Chloro-2-cyclopropyl-4-[2-(indol-3-yl)-1-methyl-ethylamino]-6-methoxy-carbonylpyrimidine] | 30% | 10% | 10% | 70% | 90% | 60% | 0% | 0% | 0% | 10% | 30% | 70%
COC(=O)c1nc(C2CC2)nc(NCC(C)c2ccccc2)c1Cl (stereo not drawn) [Compound 4-232, 5-Chloro-2-cyclopropyl-6-methoxycarbonyl-4-[2-(phenyl)propyl-amino]-pyrimidine] | 50% | 30% | 20% | 70% | 100% | 100% | 30% | 30% | 10% | 80% | 90% | 50%
